The values below are quoted from earlier work in patent US20260199284A1, “SPECIFIC VASH COMPOUNDS (SVC) INHIBITORS FOR HEART DISEASES” (MT ACT, priority 2023, published 2026).

In this series the test system is VASH. To be noted: cited from earlier work.

Turning to `CCOC(=O)[C@H]1O[C@@H]1C(=O)N[C@@H](Cc1ccc(O)cc1)C(=O)O` [Epo-Y, epoxide-Y], the “more potent VASH inhibitor than PTL” value is recorded as over 10 fold.
